The values below come from patent publication US8604016B2, “Heterocyclic inhibitors of glutaminase” (Calithera Biosciences Inc., priority 2011, dated 2013).

In one assay the target is recombinant form of Glutaminase 1 (GAC) (Homo sapiens, UniProt O94925). The assay can be described thus: Recombinant Enzyme Assay (GAC coupled to GDH, NADH absorbance, no preincubation). In kind it is biochemical. To be noted: no preincubation; read-out: GAC Delta N2 IC50 no preinc. A digest of the protocol:
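GAC (4 nM) in Tris-HCl pH 8.0 with 150 mM K2HPO4, EDTA, BSA, DTT, plus 4 units/ml GDH and 4 mM ADP, without preincubation. Absorbance at 340 nm was read kinetically for 15 min at 20° C. Slopes (mAU/min) were compared with DMSO-only and control-compound wells on the same plate.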
As for `CCC(C)C(=O)Nc1nnc(CCSCCc2nnc(NC(=O)C(C)CC)s2)s1` (centres unmarked) [Compound 105], the IC50 turned out to be 9900 nM.
The same measure, in the same setting: in the case of `O=C(Nc1nnc(CCCCc2nnc(NC(=O)C(OCCO)c3ccccc3)s2)s1)C(OCCO)c1ccccc1` (centres unmarked) [Compound 252] it was 1200 nM.
`NC(C(=O)Nc1nnc(CCSCCc2nnc(NC(=O)C(N)C3CCCC3)s2)s1)C1CCCC1` (centres unmarked) [Compound 125]: the IC50 was > 20000 nM.
On to `O=C(Nc1nnc(CCSCCc2nnc(NC(=O)C3C[C@@H]3c3ccccc3)s2)s1)C1C[C@@H]1c1ccccc1` (some centres unmarked) [Compound 91], for which the IC50 was > 20000 nM.
With `COC(C(=O)Nc1nnc(CCSCCc2nnc(NC(=O)C(OC)c3ccccc3)s2)s1)c1ccccc1` (centres unmarked) [Compound 67], the IC50 stood at 3000 nM.
The same measure, in the same setting: the figure for `COc1cc(C(O)C(=O)Nc2nnc(CCCCc3nnc(NC(=O)C(O)c4ccc(O)c(OC)c4)s3)s2)ccc1O` (centres unmarked) [Compound 319] is 640 nM; for `CC[C@](O)(C(=O)Nc1nnc(CCSCCc2nnc(NC(=O)[C@@](O)(CC)c3ccccc3)s2)s1)c1ccccc1` [Compound 141] it is 1700 nM; for `O=C(Cc1ccsc1)Nc1nnc(CCCCc2nnc(NC(=O)Cc3ccsc3)s2)s1` [Compound 88] it is 200 nM.
Same read-out and setting: in the case of `CN(C)CC(=O)Nc1nnc(CCCCc2nnc(NC(=O)Cc3ccccc3)s2)s1` [Compound 297] it was 6400 nM.
Same read-out and setting: in the case of `O=C(Nc1nnc(CCCCc2nnc(NC(=O)C3COc4ccccc4O3)s2)s1)C1COc2ccccc2O1` (centres unmarked) [Compound 52] it was 8300 nM; in that of `CC(CCC(C)c1nnc(NC(=O)Cc2ccccc2)s1)c1nnc(NC(=O)Cc2ccccc2)s1` (centres unmarked) [Compound 289], 32000 nM; in that of `O=C(Nc1nnc(CCSCCc2nnc(NC(=O)C3Cc4ccccc4O3)s2)s1)C1Cc2ccccc2O1` (centres unmarked) [Compound 50], 2500 nM.
For `O=C(CC1CCCC1)Nc1nnc(CCSCCc2nnc(NC(=O)CC3CCCC3)s2)s1` [Compound 58], the IC50 is > 50000 nM.
As for `Cc1cc(C)n(CC(=O)Nc2nnc(CCSCCc3nnc(NC(=O)Cn4nc(C)cc4C)s3)s2)n1` [Compound 97], the IC50 stood at 560 nM.
With `O=C(Cc1cccc(-n2cccn2)c1)Nc1nnc(CCCCc2nnc(NC(=O)Cc3cccc(-n4cccn4)c3)s2)s1` [Compound 285], the IC50 came to 190 nM.
Take `O=C(Nc1nnc(CCCCc2nnc(NC(=O)C(O)Cc3ccccc3)s2)s1)C(O)Cc1ccccc1` (centres unmarked) [Compound 69]: the IC50 was 690 nM.
On the same count and under the same terms, in the case of `CC1(C)O[C@H](C(=O)Nc2nnc(CCCCc3nnc(NC(=O)[C@H]4OC(C)(C)O[C@@H]4c4ccccc4)s3)s2)[C@@H](c2ccccc2)O1` [Compound 224] it was > 20000 nM; in that of `CC(C)(C)OC(=O)Nc1cccc(CC(=O)Nc2nnc(CCCCc3nnc(NC(=O)Cc4cccc(NC(=O)OC(C)(C)C)c4)s3)s2)c1` [Compound 327], > 20000 nM; in that of `O=C(Cc1cccc(F)c1)Nc1nnc(CCSCCc2nnc(NC(=O)Cc3cccc(F)c3)s2)s1` [Compound 102], 240 nM.
Still for that read-out and setting: the figure for `CC(=O)NCC(C(=O)Nc1nnc(CCCCc2nnc(NC(=O)C(CNC(C)=O)c3ccccc3)s2)s1)c1ccccc1` (centres unmarked) [Compound 266] is 2200 nM; for `O=C(Nc1nnc(CCCCc2nnc(NC(=O)C(O)(CO)c3ccccc3)s2)s1)C(O)(CO)c1ccccc1` (centres unmarked) [Compound 278] it is 380 nM; for `CC(CO)(CO)C(=O)Nc1nnc(CCCCc2nnc(NC(=O)C(C)(CO)CO)s2)s1` [Compound 151] it is 14000 nM.
Same read-out and setting: in the case of `CO[C@H](C(=O)Nc1nnc(CCCCc2nnc(NC(=O)[C@@H](OC)c3ccccc3)s2)s1)c1ccccc1` [Compound 148] it was 590 nM.
Take `O=C(Nc1nnc(CCSCCc2nnc(NC(=O)[C@@H](O)c3ccccc3)s2)s1)[C@@H](O)c1ccccc1` [Compound 93]: the IC50 was 900 nM.
On to `O=C(Cc1ccccc1)Nc1nnc(CCCCc2nnc(NC(=O)C(CO)c3ccccc3)s2)s1` (centres unmarked) [Compound 316], for which the IC50 was determined as 190 nM.
Same read-out and setting: in the case of `CC(C)(C)C(=O)OCN(C(=O)Cc1ccccc1)c1nnc(CCSCCc2nnc(N(COC(=O)C(C)(C)C)C(=O)Cc3ccccc3)s2)s1` [Compound 16] it was > 50000 nM; in that of `O=C(OCC(C(=O)Nc1nnc(CCCCc2nnc(NC(=O)C(COC(=O)C3CCNCC3)c3ccccc3)s2)s1)c1ccccc1)C1CCNCC1` (centres unmarked) [Compound 302], 7000 nM; in that of `O=C(Cc1cc2ccccc2o1)Cc1nnc(CCSCCc2nnc(NC(=O)Cc3cc4ccccc4o3)s2)s1` [Compound 193], 3400 nM.
On the same count and under the same terms, in the case of `Nc1ccc(CC(=O)Nc2nnc(CCCCc3nnc(NC(=O)Cc4ccc(N)cc4)s3)s2)cc1` [Compound 196] it was 190 nM; in that of `O=C(CCc1ccccc1)Nc1nnc(CCSCCc2nnc(NC(=O)CCc3ccccc3)s2)s1` [Compound 75], > 50000 nM; in that of `O=C(CCc1ccccc1)Nc1nnc(CCCCc2nnc(NC(=O)CCc3ccccc3)s2)s1` [Compound 106], > 20000 nM.
Same read-out and setting: in the case of `O=C(Cc1c(F)cccc1F)Nc1nnc(CCSCCc2nnc(NC(=O)Cc3c(F)cccc3F)s2)s1` [Compound 298] it was 730 nM.
For `COc1ccc(OC)c(CC(=O)Nc2nnc(CCCCc3nnc(NC(=O)Cc4ccccc4)s3)s2)c1` [Compound 271], the IC50 was 100 nM.
`O=C(Nc1nnc(CCCc2nnc(NC(=O)C(CO)c3ccccc3)s2)s1)C(CO)c1ccccc1` (centres unmarked) [Compound 176]: the IC50 was 570 nM.
Still for that read-out and setting: the figure for `O=C(Cc1cccnc1)Nc1nnc(CCCCc2nnc(NC(=O)Cc3cccnc3)s2)s1` [Compound 311] is 200 nM.
Still for that read-out and setting: in the case of `O=C(Cn1cccn1)Nc1nnc(CCSCCc2nnc(NC(=O)Cn3cccn3)s2)s1` [Compound 57] it was 40000 nM; in that of `COc1ccc2c(c1)CC(C(=O)Nc1nnc(CCCCc3nnc(NC(=O)C4Cc5cc(OC)ccc5O4)s3)s1)O2` (centres unmarked) [Compound 121], 1700 nM.
Same read-out and setting: in the case of `CC(=O)OCC(=O)Nc1nnc(CCSCCc2nnc(NC(=O)COC(C)=O)s2)s1` [Compound 5] it was > 50000 nM.
On to `COC(=O)C(CC(=O)Nc1nnc(CCCCc2nnc(NC(=O)CC(C(=O)O)c3ccccc3)s2)s1)c1ccccc1` (centres unmarked) [Compound 178], for which the IC50 was determined as 1500 nM.
On the same count and under the same terms, in the case of `O=C(OCCCN1CCOCC1)OCN(C(=O)Cc1ccccc1)c1nnc(CCSCCc2nnc(N(COC(=O)OCCCN3CCOCC3)C(=O)Cc3ccccc3)s2)s1` [Compound 28] it was > 50000 nM; in that of `O=C(Nc1nnc(CCSCCc2nnc(NC(=O)c3cc4ccccc4o3)s2)s1)c1cc2ccccc2o1` [Compound 215], 16000 nM.
On the same count and under the same terms, the figure for `O=C(Cn1ccc2ccccc21)Nc1nnc(CCSCCc2nnc(NC(=O)Cn3ccc4ccccc43)s2)s1` [Compound 213] is 2500 nM.
The same measure, in the same setting: the figure for `CC1(C)OC(=O)[C@@H](CC(=O)Nc2nnc(CCSCCc3nnc(NC(=O)C[C@H]4OC(C)(C)OC4=O)s3)s2)O1` [Compound 104] is > 20000 nM; for `CN(C)c1ccc(CC(=O)Nc2nnc(CCCCc3nnc(NC(=O)Cc4ccc(N(C)C)cc4)s3)s2)cc1` [Compound 164] it is 240 nM; for `Cn1cc(CC(=O)Nc2nnc(CCCCc3nnc(NC(=O)Cc4cn(C)c5ccccc45)s3)s2)c2ccccc21` [Compound 201] it is 2700 nM.
Take `CC(C)(C)OC(=O)N1CCN(C(C(=O)Nc2nnc(CCCCc3nnc(NC(=O)C(c4ccccc4)N4CCN(C(=O)OC(C)(C)C)CC4)s3)s2)c2ccccc2)CC1` (centres unmarked) [Compound 63]: the IC50 stood at 25000 nM.

Still in this assay, the particulars now being: read-out: GAC Delta N2 IC50 no preinc.
With `O=C(Nc1nnc(CCSCCc2nnc(NC(=O)c3ccccc3)s2)s1)c1ccccc1` [Compound 2], the IC50 came out at 4100 nM.
